Where two headings read alike, the source gives them in different places. Marks after values point to notes of the source that are not given here.
Key:
S. liquefaciens MG44 = assay: static peg (Calgary Biofilm Device) anti-biofilm assay, crystal violet and OD600; format: cell-based, Serratia liquefaciens
C. albicans SC5314 = assay: inhibition of C. albicans biofilms, cell titer blue (CTB) quantification; format: cell-based, Candida albicans; settings: biofilm formation, read-out: BIC50
Experimental: The potential of the compounds to prevent C. albicans SC5314 biofilm formation was assessed using the cell titer blue (CTB) quantification method (26). For the CTB method, an overnight culture of C. albicans SC5314 was washed with PBS and a cell suspension of 10^6 cells/ml (OD600=0.1) was prepared in RPMI 1640 medium (pH 7.0). […] After 16 h of static incubation at 37° C., biofilms were washed and quantified with CTB as described previously.

[1] = tested on: C. albicans SC5314 + E. coli MG1655; assay: mixed C. albicans/E. coli biofilm assay, selective plating; format: cell-based, Candida albicans; E. coli; settings: 37° C.; for CFUs % survival E. coli: E. coli in mixed biofilm with C. albicans
Experimental: Overnight cultures of C. albicans SC5314 (YPD) and E. coli MG1655 (TSB). were washed three times with PBS, after which they were diluted in RPMI medium to optical densities at 600 nm (OD600) of 1 and 0.01, respectively. Equal volumes of these cell suspensions were mixed, and 100 μl of this mixed cell suspension together with compound was added to the wells of a microtiter plate in triplicate. The concentrations 25 μM (0.0625% DMSO or ethanol) and 100 μM (0.25% DMSO or ethanol) were tested. After 24 h incubation at 37° C. the medium was removed and the biofilm was washed with PBS. Next, the cells were re-suspended in 100 μl of PBS by scraping off, sonication (1 min, 45 kHz, USC300-T; VWR, Radnor, Pa., USA) and vigorously pipetting up-and-down. Finally, dilution series were made, and quantification of E. coli MG1655 and C. albicans SC5314 populations was performed using selective plating on TSA plates containing 25 mg/L amphotericin B and YPD plates containing 100 μg/ml tetracycline, respectively. The percentage of C. albicans SC5314 and E. coli MG1655 cells was determined relative to the DMSO or ethanol control treatment.

[2] = tested on: C. albicans SC5314 + S. aureus SH1000; assay: mixed C. albicans/S. aureus biofilm assay, selective plating; format: cell-based, Candida albicans; Staphylococcus aureus; settings: 37° C.; for CFUs % survival S.a.: S. aureus in mixed biofilm with C. albicans
Experimental: Overnight cultures of C. albicans SC5314 (YPD, 30° C.) and S. aureus SH1000 (LB, 37° C.) were washed with PBS, after which they were diluted in RPMI medium to obtain cell suspensions of 10^6 cells/ml for fungal cells and 10^8 cells/ml for bacteria. Equal volumes of these cell suspensions were mixed, and 100 μl of this mixed cell suspension together with compound was added to the wells of a microtiter plate in triplicate. The concentrations 25 μM (0.0625% DMSO or ethanol) and 100 μM (0.25% DMSO or ethanol) were tested. The plates were incubated at 37° C. for 90 min. After incubation the wells were washed twice with PBS, and 200 μl of the fresh RPMI medium with or without compounds was added in triplicate to the wells. After 24 h incubation at 37° C. the medium was removed and the biofilm was washed with PBS. Next, the cells were re-suspended in 100 μl of PBS by scraping off, sonication (1 min, 45 kHz, USC300-T; VWR, Radnor, Pa., USA) and vigorously pipetting up-and-down. Finally, dilution series were made, and quantification of S. aureus SH1000 and C. albicans SC5314 populations was performed using selective plating on TSA plates containing 25 mg/L amphotericin B and YPD plates containing 100 μg/ml tetracycline, respectively. The percentage of C. albicans SC5314 and S. aureus SH1000 cells was determined relative to the DMSO or ethanol control treatment.

[3] = tested on: E. coli TG1 + P. aeruginosa PA14; assay: mixed E. coli/P. aeruginosa biofilm assay, crystal violet; format: cell-based; settings: 37° C. (Table 3)
Experimental: Overnight cultures of E. coli TG1 and P. aeruginosa PA14, were diluted 1/100 in the same vial of TSB 1/20 to form a mixed culture suspension.

[4] = tested on: S. aureus ATCC6538 + S. epidermidis; assay: mixed S. aureus/S. epidermidis biofilm assay, crystal violet; format: cell-based; settings: 37° C. (Table 3)
Experimental: Overnight cultures of S. aureus ATCC6538 and S. epidermidis were grown in LB medium and were diluted 1/200 in the same vial of TSB to form a mixed culture suspension.

S. aureus ATCC6538 = assay: static peg (Calgary Biofilm Device) anti-biofilm assay, crystal violet and OD600; settings: 37° C.
S. aureus SH1000 = assay: as above; settings: 37° C.
S. epidermidis = assay: as above; settings: 37° C.
P. gingivalis ATCC33277 = assay: as above; settings: 37° C.
E. coli TG1 = assay: as above; settings: 37° C.
P. aeruginosa PA14 = assay: as above
S. Typhimurium ATCC14028 = assay: as above; settings: read-out: BIC50; biofilm formation, 25° C.
B. cepacia LMG1222T = assay: as above; settings: 25° C.
[5] = biofilm formation, 25° C., read-out: BIC50
[6] = planktonic growth, 25° C., read-out: IC50
[7] = C. albicans in mixed biofilm with E. coli MG1655, 25 μM
[8] = C. albicans in mixed biofilm with E. coli MG1655, 100 μM
[9] = C. albicans in mixed biofilm with S. aureus SH1000, 25 μM
[10] = C. albicans in mixed biofilm with S. aureus SH1000, 100 μM
[11] = mixed biofilm formation, read-out: BIC50
[12] = planktonic growth of mixed culture, read-out: IC50
[13] = read-out: BIC50, biofilm formation
[14] = read-out: BIC50, biofilm formation, 25° C.
[15] = read-out: BIC50, biofilm formation, 37° C.

SMILES	CFUs % survival C.a. [1, 7]	CFUs % survival C.a. [1, 8]	CFUs % survival E. coli ([1]; 25 μM)	CFUs % survival E. coli ([1]; 100 μM)	CFUs % survival C.a. [2, 9]	CFUs % survival C.a. [2, 10]	CFUs % survival S.a. ([2]; 25 μM)	CFUs % survival S.a. ([2]; 100 μM)	IC50 [3, 11]	IC50 [3, 12]	IC50 [4, 11]	IC50 [4, 12]	IC50 (S. aureus ATCC6538; planktonic growth)	IC50 (S. aureus ATCC6538; [13])	IC50 (S. aureus SH1000; planktonic growth)	IC50 (S. aureus SH1000; [13])	IC50 (S. epidermidis; planktonic growth)	IC50 (S. epidermidis; [13])	IC50 (P. gingivalis ATCC33277; planktonic growth)	IC50 (P. gingivalis ATCC33277; [13])	also measured
Clc1ccc(-c2cnc(NC3CCCC3)[nH]2)cc1 [Compound 5]	100.8%	38.3* %	100.6%	105.6* %	232.4%	120.6%	75.4%	74.5* %	0.5 µM	> 400 µM	~66.6 µM	~91.7 µM	62.3 µM	34.4 µM	71.5 µM	70.6 µM	39.5 µM	> 400 µM	4 µM	5.7 µM	IC50 (S. liquefaciens MG44; [5]): 8.8 µM; IC50 (S. liquefaciens MG44; [6]): 125 µM; IC50 (C. albicans SC5314; 37° C.): 64 µM; IC50 (E. coli TG1; planktonic growth): 17.1 µM; IC50 (E. coli TG1; [13]): ~45.7 µM; IC50 (P. aeruginosa PA14; planktonic growth, 37° C.): > 400 µM; IC50 (P. aeruginosa PA14; [14]): 13.5 µM; IC50 (P. aeruginosa PA14; [15]): > 400 µM; IC50 (S. Typhimurium ATCC14028): 4.4 µM; IC50 (B. cepacia LMG1222T; planktonic growth): > 400 µM; IC50 (B. cepacia LMG1222T; [13]): 331 µM
CC(C)CNc1ncc(-c2ccc(Cl)cc2)[nH]1 [Compound 3]	143.4%	59.6* %	138.5%	63.0* %	165.7%	141.3%	124.6%	51.8* %	7.4 µM	> 400 µM	~26.3 µM	~140 µM	~96.1 µM	95.3 µM	~175 µM	~200 µM	86.2 µM	> 400 µM	5.1 µM	5.3 µM	IC50 (S. liquefaciens MG44; [5]): 10.4 µM; IC50 (S. liquefaciens MG44; [6]): 154 µM; IC50 (C. albicans SC5314; 37° C.): 93.9 µM; IC50 (E. coli TG1; planktonic growth): 30 µM; IC50 (E. coli TG1; [13]): 110 µM; IC50 (P. aeruginosa PA14; planktonic growth, 37° C.): > 400 µM; IC50 (P. aeruginosa PA14; [14]): 0.9 µM; IC50 (P. aeruginosa PA14; [15]): > 400 µM; IC50 (S. Typhimurium ATCC14028): 2 µM; IC50 (B. cepacia LMG1222T; planktonic growth): > 400 µM; IC50 (B. cepacia LMG1222T; [13]): 88.1 µM
CCCCCCCCn1c(-c2ccc(Cl)cc2)cnc1N [Compound 2]	104.9%	0.0* %	158.6%	0.1* %	183.8%	0.9* %	87.7%	0.2* %	36.8 µM	19.9 µM	~7.2 µM	~9.9 µM	7.8 µM	2.8 µM	8.3 µM	3.4 µM	~11.1 µM	~5.6 µM	6 µM	3.9 µM	IC50 (S. liquefaciens MG44; biofilm formation, read-out: BIC50): 18.8 µM; IC50 (S. liquefaciens MG44; planktonic growth, read-out: IC50): 38 µM; IC50 (C. albicans SC5314): 6.2 µM; IC50 (E. coli TG1; planktonic growth): 7.7 µM; IC50 (E. coli TG1; [13]): ~6.5 µM; IC50 (P. aeruginosa PA14; planktonic growth, 37° C.): 10 µM; IC50 (P. aeruginosa PA14; [14]): 4 µM; IC50 (P. aeruginosa PA14; [15]): 118 µM; IC50 (S. Typhimurium ATCC14028): ~5.9 µM; IC50 (B. cepacia LMG1222T; planktonic growth): > 400 µM; IC50 (B. cepacia LMG1222T; [13]): 145 µM
